pIC50: −log10 of the molar value. Each block holds one compound with its values, some of them ahead of it.
Legend:
[1] = system: normal human fibroblast (NHF) cells; test: NHF Cell Cytotoxicity Assay (CellTiter-Blue, 72 h), off-target effects; type: cell-based; details: pooled NHF cells
Protocol: In some embodiments, the off-target effects of the compounds are evaluated in healthy human cells, such as in a normal human fibroblast (NHF) cell cytotoxicity assay.
Cell viability was examined following treatment at various concentrations of inhibitor (0.097656-50 μM) using a cell Titer-Blue cell viability assay. 1×10^4 normal human fibroblast cells per well were plated in 96-well assay plates in culture medium. All cells are grown in DMEM, IMDM and RPMI-1640 were supplemented with 10% FBS. After 24 hours, test compounds and vehicle controls are added to appropriate wells so the final volume was 100 μl in each well. The cells are cultured for the desired test exposure period (72 hours) at 37° C. and 5% CO2. The assay plates are removed from 37° C. incubator and 20 μL/well of CellTiter-Blue® Reagent is added. The plates are incubated using standard cell culture conditions for 1-4 hours and the plates are shaken for 10 seconds and record fluorescence at 560/590nm. For each sample well, value is normalized between the DMSO control and the highest concentration in case of plateau, and converted into a percentage. In the absence of plateau, minimum lecture is obtained from a different sample within the same experiment. For each concentration, the four replicates are averaged and standard deviation calculated. Data is fitted to a log(inhibitor) vs response curve with variable slope model using Microsoft Excel, obtaining IC50 and Hill slope variables.
A person skilled in the art would appreciate that a higher IC50 value in this NHF assay can indicate lower off-target effects.

glutathione (GSH) = test: Reactivity Profiling with Glutathione (GSH), half-life by HPLC; details: 5 mM glutathione (GSH) in IMDM with 10% FBS
MV4-11 cells = test: MV4-11 Cell Cytotoxicity Assay (CellTiter-Blue, 72 h); type: cell-based, human; details: MV-4-11 cells
Procedure, shortened: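 Cells seeded 24 h before treatment, then exposed 72 h at 37° C, 5% CO2 to inhibitors in triplicate, top concentration 50 μM with 1:2 serial dilutions (0.5% DMSO vehicle). Viability read by CellTiter-Blue fluorescence at 560/590 nm after 1 h.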

- half-life at 25 μM (glutathione (GSH)): 2.37 to 4.12 h
Structure (SMILES): O=C(O)c1ccc(N(Cc2nc(C3CC3)cc(C3CC3)n2)C(=O)CN(Cc2ccc(F)cc2Cl)S(=O)(=O)c2c(F)c(F)c(F)c(F)c2F)c(OC2CC2)c1 [Compound 1247, 4-(2-(N-(2-chloro-4-fluorobenzyl)-(2,3,4,5,6-pentafluorophenyl)sulfon-amido)-N-((4,6-dicyclopropylpyrimidin-2-yl)methyl)acetamido)-3-cyclopropoxybenzoic acid]
- pIC50 ([1]; Homo sapiens, Fibroblast): 4.70 to 5.00

Structure (SMILES): CC(C)COc1cc(C(=O)O)ccc1N(Cc1cc(C2CC2)cc(C2CC2)c1)C(=O)CN(Cc1ccc(F)cc1Cl)S(=O)(=O)c1c(F)c(F)c(F)c(F)c1F [Compound 1255, 4-(2-(N-(2-chloro-4-fluorobenzyl)-(2,3,4,5,6-pentafluorophenyl)sulfon-amido)-N-(3,5-dicyclopropylbenzyl)acetamido)-3-isobutoxybenzoic acid]
- pIC50 ([1]; Homo sapiens, Fibroblast): 4.70 to 5.00
- half-life at 25 μM (glutathione (GSH)): 9.23 to 1670 h

- half-life at 25 μM (glutathione (GSH)): 2.37 to 4.12 h
Structure (SMILES): COc1cc(C(=O)O)ccc1N(Cc1cc(C2CC2)cc(C2CC2)c1)C(=O)CN(Cc1ncccc1C(F)(F)F)S(=O)(=O)c1c(F)c(F)c(F)c(F)c1F [Compound 1162, 4-(N-(3,5-dicyclopropylbenzyl)-2-(N-((3-(trifluoromethyl)pyridin-2-yl)methyl)-(2,3,4,5,6-pentafluoro-phenyl)sulfonamido)acetamido)-3-methoxybenzoic acid]
- pIC50 ([1]; Homo sapiens, Fibroblast): 4.70 to 5.00

Structure (SMILES): O=C(O)c1ccc(N(Cc2cc(C3CC3)cc(N3CCCC3)c2)C(=O)CN(Cc2ccc(F)cc2Cl)S(=O)(=O)c2c(F)c(F)c(F)c(F)c2F)c(OC2CCCC2)c1 [Compound 1239, 4-(2-(N-(2-chloro-4-fluorobenzyl)-(2,3,4,5,6-pentafluorophenyl)sulfon-amido)-N-(3-cyclopropyl-5-(pyrrolidin-1-yl)benzyl)acetamido)-3-(cyclopentyloxy)benzoic acid]
- pIC50 ([1]; Homo sapiens, Fibroblast): 4.52 to 4.70
- pIC50 (MV4-11 cells; Homo sapiens, MV4-11): 6.50 to 11.00

Structure (SMILES): Cc1cc(C(=O)O)ccc1N(Cc1cc(C2CC2)cc(C(C)(C)C)c1)C(=O)CN(Cc1ccc(F)cc1Cl)S(=O)(=O)c1c(F)c(F)c(F)c(F)c1F [Compound 1250, 4-(N-(3-(tert-butyl)-5-cyclopropylbenzyl)-2-(N-(2-chloro-4-fluorobenzyl)-(2,3,4,5,6-pentafluorophenyl)sulfon-amido)acetamido)-3-methylbenzoic acid]
- pIC50 ([1]; Homo sapiens, Fibroblast): 5.00 to 9.00
- pIC50 (MV4-11 cells; Homo sapiens, MV4-11): 6.50 to 11.00

Structure (SMILES): CCOc1cc(C(=O)O)ccc1N(Cc1cc(C2CC2)cc(C2CC2)c1)C(=O)CN(Cc1ccc(F)cc1C#N)S(=O)(=O)c1c(F)c(F)c(F)c(F)c1F [Compound 1275, 4-(2-((N-(2-cyano-4-fluorobenzyl)-2,3,4,5,6-pentafluorophenyl)sulfonamido)-N-(3,5-dicyclopropylbenzyl)acetamido)-3-ethoxybenzoic acid]
- pIC50 ([1]; Homo sapiens, Fibroblast): 5.00 to 9.00
- pIC50 (MV4-11 cells; Homo sapiens, MV4-11): 6.50 to 11.00

Structure (SMILES): CN(C)c1cc(C(=O)O)ccc1N(Cc1cc(C2CC2)cc(N2CCCC2)c1)C(=O)CN(Cc1ccc(F)cc1Cl)S(=O)(=O)c1c(F)c(F)c(F)c(F)c1F [Compound 1212, 4-(2-(N-(2-chloro-4-fluorobenzyl)-(2,3,4,5,6-pentafluorophenyl)sulfon-amido)-N-(3-cyclopropyl-5-(pyrrolidin-1-yl)benzyl)acetamido)-3-(dimethylamino) benzoic acid]
- pIC50 ([1]; Homo sapiens, Fibroblast): 4.70 to 5.00
- pIC50 (MV4-11 cells; Homo sapiens, MV4-11): 6.00 to 6.50

Structure (SMILES): CC(C)(C)c1cc(CN(C(=O)CN(Cc2ccc(F)cc2Cl)S(=O)(=O)c2c(F)c(F)c(F)c(F)c2F)c2ccc(C(=O)O)cc2C2CC2)cc(C2CC2)c1 [Compound 1193, 4-(N-(3-(tert-butyl)-5-cyclopropylbenzyl)-2-(N-(2-chloro-4-fluorobenzyl)-(2,3,4,5,6-pentafluorophenyl)sulfon-amido)acetamido)-3-cyclopropylbenzoic acid]
- pIC50 [1]: 4.70 to 5.00
- pIC50 (MV4-11 cells): 6.50 to 11.00

Reference: patent US20230159445A1, “STAT INHIBITORY COMPOUNDS AND COMPOSITIONS” (JANPIX LIMITED, priority 2020, published 2023)
